Measured values reported in ChEMBL document CHEMBL2176994, “Radiosynthesis of PET radiotracer as a prodrug for imaging group II metabotropic glutamate receptors in vivo” (Bioorg Med Chem Lett, 2012).
Values belong to the molecule of their own block, whether it stands above or below them.

Experiments:
[1] = molecular target: T1, Metabotropic glutamate receptor 3 (Homo sapiens, UniProt Q14832); assay: Agonist activity at mGLUR3 expressed in CHO cells; type: functional, cell-based
[2] = molecular target: T2, Metabotropic glutamate receptor 2 (Homo sapiens, UniProt Q14416); assay: Agonist activity at mGLUR2 expressed in CHO cells; type: functional, cell-based
[3] = molecular target: T1, Metabotropic glutamate receptor 3; assay: Antagonist activity at mGLUR3 expressed in CHO cells assessed as inhibition of glutamate-induced inhibition of forskolin-stimulated cAMP production; type: functional, cell-based
[4] = molecular target: T1, Metabotropic glutamate receptor 3; assay: Binding affinity to mGLUR3
[5] = molecular target: T2, Metabotropic glutamate receptor 2; assay: Antagonist activity at mGLUR2 expressed in CHO cells assessed as inhibition of glutamate-induced inhibition of forskolin-stimulated cAMP production
[6] = molecular target: T2, Metabotropic glutamate receptor 2; assay: Binding affinity to mGLUR2
[7] = molecular target: Metabotropic glutamate receptor 3 (Rattus norvegicus, UniProt P31422); assay: Agonist activity at mGLUR3 in rat cerebral cortex assessed as inhibition of forskolin-stimulated cAMP production; type: functional, tissue-based
[8] = Drug uptake in Sprague-Dawley rat olfactory lobe at […], iv from 20 to 40 mins by microPET analysis in presence of LY341495; type: ADME, organism-based; conditions: in vivo
Cerebellum = assay: Drug uptake in Sprague-Dawley rat cerebellum at […], iv from 20 to 40 mins by microPET analysis in presence of LY341495; type: ADME, organism-based; conditions: in vivo
[9] = Drug uptake in Sprague-Dawley rat motor cortex at […], iv from 20 to 40 mins by microPET analysis in presence of LY341495; type: ADME, organism-based; conditions: in vivo
[10] = Drug uptake in Sprague-Dawley rat cingulate cortex at […], iv from 20 to 40 mins by microPET analysis in presence of LY341495; type: ADME, organism-based; conditions: in vivo
Striatum [11] = assay: Drug uptake in Sprague-Dawley rat striatum at 0.4 uCi, iv from 20 to 40 mins by microPET analysis in presence of LY341495; type: ADME, organism-based; conditions: in vivo
Thalamus = assay: Drug uptake in Sprague-Dawley rat thalamus at 0.4 uCi, iv from 20 to 40 mins by microPET analysis in presence of LY341495; type: ADME, organism-based; conditions: in vivo
Hippocampus [12] = assay: Drug uptake in Sprague-Dawley rat hippocampus at […], iv from 20 to 40 mins by microPET analysis in presence of LY341495; type: ADME, organism-based; conditions: in vivo
Brain [13] = assay: Drug uptake in Sprague-Dawley rat brain at […], iv from 20 to 40 mins by microPET analysis in presence of LY341495; type: ADME, organism-based; conditions: in vivo
Brain [14] = assay: Drug uptake in Sprague-Dawley rat brain at […], iv at 2 mins by microPET analysis; type: ADME, organism-based; conditions: in vivo
Striatum [15] = assay: Drug uptake in Sprague-Dawley rat striatum at […], iv from 1 to 40 mins by microPET analysis; type: ADME, organism-based; conditions: in vivo
Hippocampus [16] = assay: Drug uptake in Sprague-Dawley rat hippocampus at […], iv from 1 to 40 mins by microPET analysis; type: ADME, organism-based; conditions: in vivo
Cortex = assay: Drug uptake in Sprague-Dawley rat cortex at […], iv from 1 to 40 mins by microPET analysis; type: ADME, organism-based; conditions: in vivo
Brain [17] = assay: Drug uptake in Sprague-Dawley rat brain at […], iv from 1 to 40 mins by microPET analysis; type: ADME, organism-based; conditions: in vivo
Brain [18] = assay: Drug uptake in Sprague-Dawley rat brain at […], iv from 20 to 25 mins by microPET analysis; type: ADME, organism-based; conditions: in vivo

T1 sequence (Q14832 whole entry): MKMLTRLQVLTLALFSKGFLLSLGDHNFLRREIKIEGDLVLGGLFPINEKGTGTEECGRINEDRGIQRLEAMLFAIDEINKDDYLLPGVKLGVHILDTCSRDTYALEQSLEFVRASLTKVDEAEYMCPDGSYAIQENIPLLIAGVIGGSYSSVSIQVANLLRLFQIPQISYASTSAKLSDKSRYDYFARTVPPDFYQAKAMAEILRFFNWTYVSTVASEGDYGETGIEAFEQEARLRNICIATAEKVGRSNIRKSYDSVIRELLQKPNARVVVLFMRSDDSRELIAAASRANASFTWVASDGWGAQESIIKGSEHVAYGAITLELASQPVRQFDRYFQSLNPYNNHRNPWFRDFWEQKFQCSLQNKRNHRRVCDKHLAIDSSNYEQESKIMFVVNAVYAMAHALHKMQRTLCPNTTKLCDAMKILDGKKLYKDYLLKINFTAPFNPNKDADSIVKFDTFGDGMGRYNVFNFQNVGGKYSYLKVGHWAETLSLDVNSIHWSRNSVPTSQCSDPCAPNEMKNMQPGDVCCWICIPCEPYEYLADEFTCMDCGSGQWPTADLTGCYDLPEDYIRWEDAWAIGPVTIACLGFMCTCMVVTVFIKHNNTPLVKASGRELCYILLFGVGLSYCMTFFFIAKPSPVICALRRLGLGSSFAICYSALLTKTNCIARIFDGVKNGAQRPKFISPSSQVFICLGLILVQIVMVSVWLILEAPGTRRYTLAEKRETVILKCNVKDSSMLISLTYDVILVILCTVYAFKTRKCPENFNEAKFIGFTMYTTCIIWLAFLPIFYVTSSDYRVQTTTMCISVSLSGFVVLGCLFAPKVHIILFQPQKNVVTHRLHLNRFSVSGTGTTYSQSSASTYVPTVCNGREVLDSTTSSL
T2 sequence (Q14416 whole entry): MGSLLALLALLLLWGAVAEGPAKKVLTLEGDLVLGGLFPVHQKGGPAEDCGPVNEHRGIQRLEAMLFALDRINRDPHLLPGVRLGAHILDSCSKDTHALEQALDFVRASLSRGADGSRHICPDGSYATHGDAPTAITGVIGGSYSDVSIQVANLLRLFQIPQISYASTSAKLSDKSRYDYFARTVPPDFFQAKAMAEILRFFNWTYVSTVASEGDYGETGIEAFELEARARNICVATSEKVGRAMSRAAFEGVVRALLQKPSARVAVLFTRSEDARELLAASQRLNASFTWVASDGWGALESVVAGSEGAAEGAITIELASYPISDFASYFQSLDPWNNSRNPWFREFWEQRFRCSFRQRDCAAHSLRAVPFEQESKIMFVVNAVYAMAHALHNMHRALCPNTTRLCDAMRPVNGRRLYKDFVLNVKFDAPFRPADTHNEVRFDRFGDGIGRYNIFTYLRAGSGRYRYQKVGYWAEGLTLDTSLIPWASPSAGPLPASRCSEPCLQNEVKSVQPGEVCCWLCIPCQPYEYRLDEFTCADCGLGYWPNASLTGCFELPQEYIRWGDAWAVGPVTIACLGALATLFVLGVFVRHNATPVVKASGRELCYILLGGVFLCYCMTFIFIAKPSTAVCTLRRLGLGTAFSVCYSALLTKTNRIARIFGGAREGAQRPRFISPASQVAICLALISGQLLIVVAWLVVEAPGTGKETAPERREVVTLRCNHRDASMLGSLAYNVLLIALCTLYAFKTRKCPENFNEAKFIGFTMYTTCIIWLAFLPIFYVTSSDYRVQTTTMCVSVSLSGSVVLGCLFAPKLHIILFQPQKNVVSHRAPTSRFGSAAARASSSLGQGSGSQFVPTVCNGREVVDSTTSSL
Chain of Metabotropic glutamate receptor 3 (Rattus norvegicus, UniProt P31422) (P31422 whole entry): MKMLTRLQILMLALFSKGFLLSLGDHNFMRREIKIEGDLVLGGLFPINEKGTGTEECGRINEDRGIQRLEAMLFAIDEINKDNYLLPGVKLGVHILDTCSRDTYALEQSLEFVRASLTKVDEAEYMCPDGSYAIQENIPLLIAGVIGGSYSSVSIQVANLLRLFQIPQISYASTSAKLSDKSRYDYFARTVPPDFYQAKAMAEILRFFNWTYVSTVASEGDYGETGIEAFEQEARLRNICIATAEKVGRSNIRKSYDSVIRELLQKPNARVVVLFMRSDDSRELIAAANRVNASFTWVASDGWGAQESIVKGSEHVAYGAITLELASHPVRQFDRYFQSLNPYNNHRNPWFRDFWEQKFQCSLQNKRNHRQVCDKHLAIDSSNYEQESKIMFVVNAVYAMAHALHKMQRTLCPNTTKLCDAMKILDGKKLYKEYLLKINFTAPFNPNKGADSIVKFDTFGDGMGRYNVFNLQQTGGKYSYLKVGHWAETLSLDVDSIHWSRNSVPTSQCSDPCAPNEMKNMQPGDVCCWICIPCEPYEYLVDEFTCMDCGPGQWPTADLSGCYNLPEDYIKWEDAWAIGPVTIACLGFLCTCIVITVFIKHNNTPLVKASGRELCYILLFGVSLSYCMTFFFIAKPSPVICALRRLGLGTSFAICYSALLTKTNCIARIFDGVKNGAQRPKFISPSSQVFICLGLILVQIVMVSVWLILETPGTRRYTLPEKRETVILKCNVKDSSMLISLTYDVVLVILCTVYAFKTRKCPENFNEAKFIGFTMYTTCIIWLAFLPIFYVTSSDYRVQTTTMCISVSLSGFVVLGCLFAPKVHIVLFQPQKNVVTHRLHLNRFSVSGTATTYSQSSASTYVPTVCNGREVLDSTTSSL

EC50 [7]: 38 nM
Compound: N[C@@]1(C(=O)O)CC[C@H]2[C@H](C(=O)O)[C@H]21

Drug uptake (Brain [18]): Not Active
Compound: [11CH3]Oc1cccc(CC[C@@](N)(C(=O)O)[C@H]2C[C@@H]2C(=O)O)c1

Further lines, the molecule ahead of its results:

Compound: N[C@@]1(C(=O)O)CC(=O)[C@@H]2[C@H]1[C@@]2(F)C(=O)O
EC50 [1]: 2.07 nM
EC50 [2]: 0.57 nM

Compound: N[C@]1(C(=O)O)[C@H]2[C@@H](C[C@H]1OCc1ccc(Cl)c(Cl)c1)[C@]2(F)C(=O)O
IC50 [3]: 24 nM
Ki [4]: 4.5 nM
IC50 [5]: 20 nM
Ki [6]: 2.2 nM

Compound: COC(=O)[C@H]1C[C@@H]1[C@@](N)(CCc1cccc(O[11CH3])c1)C(=O)OC
Drug uptake [8]: Active
Drug uptake (Cerebellum): Not Active
Drug uptake [9]: Not Active
Drug uptake [10]: Not Active
Drug uptake (Striatum [11]): Not Active
Drug uptake (Thalamus): Not Active
Drug uptake (Hippocampus [12]): Not Active
Drug uptake (Brain [13]): Not Active
Drug uptake (Brain [14]): 2.5 %ID/cm3
Drug uptake (Striatum [15]): Active
Drug uptake (Hippocampus [16]): Active
Drug uptake (Cortex): Active
Drug uptake (Brain [17]): Active
